Reference: patent US11236102B2, “Oxabicycloheptane prodrugs” (Lixte Biotechnology, Inc., priority 2015, dated 2022)
Values joined by “and” are separate entries in the source; they are usually repeats but may differ in a detail not shown here. Equal values may be shown once. Marks after values point to notes of the source that are not given here.

Assay: Pharmacokinetic study of 153 (iv, po) in SD rats: 153 and endothal in plasma, liver, brain
Type: in vivo, SD rats
Protocol: The blood, liver and brain tissue samples were collected at predetermined times from rats. […] Compound were diluted shortly before use in 4% sodium bicarbonate for sterile injection (this is the standard pediatric solution of NaHCO3 with a pH of about 8.5).
Compound 153 was freshly prepared by diluting the drugs shortly before use in 4% sodium bicarbonate for sterile injection (this is the standard pediatric solution of NaHCO3 with a pH of about 8.5). The final concentrations of 153 solutions were 0.25 mg/mL. The 153 solutions were administered via iv or po route at dose volume of 5 ml/kg according to the latest body weight. Compound 157 was freshly prepared by diluting the drugs shortly before use in 4% sodium bicarbonate for sterile injection (this is the standard pediatric solution of NaHCO3 with a pH of about 8.5). The final concentrations of […] solutions were 0.3 mg/mL. The 157 solutions were administered via iv or po route at dose volume of 5 ml/kg according to the latest body weight.
Twelve (12) female SD rats per group were dosed by iv with 153 or 157. The rats were fasted overnight prior to dosing, with free access to water. Foods were withheld for 2 hours post-dose. Blood, liver and brain tissue samples in two animals each group were collected at each time point, within 10% of the scheduled time for each time point. Two extra animals were used for analytic method development.
Blood (>0.3 mL) were collected via aorta abdominalis in anaesthetic animals into tubes containing heparin at 15 min, 1, 2, 6, 10 and 24 hours after iv administration. Liver and brain tissues were collected immediately after animal death. The liver and brain tissues were excised and rinsed with cold saline to avoid blood residual. Upon collection, each sample was placed on ice and the blood samples were subsequently centrifuged (4° C., 11000 rpm, 5 min) to separate plasma.
The obtained plasma, liver and brain tissue samples were stored at −70° C. until LC-MS/MS analysis.
Two (2) female SD rats per group were dosed by po with 153 or 157. The rats were fasted overnight prior to dosing, with free access to water. Foods were withheld for 2 hours post-dose. Blood samples (>0.3 mL) were collected via aorta abdominalis in anaesthetic animals into tubes containing heparin at 30 min, 1, 2, 6, 10 and 24 hours after po administration.
To each sample, 20 μL IS-D (for blank samples, 20 μL acetonitrile:water (1:1) was added) and 300 μl acetonitrile was added. The sample mixture was vortexed for approximately 3 min. After centrifugation at 10000 rpm for 5 min at 4° C., 100 μL of the upper layer was transferred to a new tube and added 200 μL 0.4% formic acid in water (pH 6.0). The mixture was vortexed for approximately 3 min before injected onto the LC/MS/MS system for analysis.
On the day of the assay, the frozen liver and brain samples were thawed unassisted at room temperature. An about 200 mg weighed sample of each thawed tissue was placed into a plastic tube with water (0.6 mL) to facilitate homogenization. Tissue processing was conducted using a homogenizer for approximately 1 min, 200 μl homogenate was transferred into a fresh Eppendorf tube. To each tube, 50 μL IS-D was added and mixed. Then 600 ul acetonitrile was added and the sample mixture was vortexed for approximately 3 min. After centrifugation at 10000 rpm for 5 min at 4° C., 400 μL of the upper layer was transferred to a new tube and evaporate the supernatant to dryness at 35° C. Reconstitute the residue with 200 μL of 0.4% formic acid in water (pH6.0), and vortex for 3 min, submit for LC-MS/MS analysis.
Frozen unknown plasma samples were completely thawed at room temperature and vortexed thoroughly. With a pipette, 50 μL of plasma was transferred into a 2.0 mL Eppendorf tube. 50 μL of 0.1N HCl and 800 μL ethyl acetate were added into each sample. The sample mixture was vortexed for approximately 3 min.

[1] = iv 1.25 mg/kg, 0.25 hr, individual rats, 1.25 mg/kg
[2] = iv 1.25 mg/kg, 1 hr, individual rats, 1.25 mg/kg
[3] = iv 1.25 mg/kg, 2 hr, individual rats, 1.25 mg/kg
[4] = plasma, 153 1.25 mg/kg PO, individual rats, 1.25 mg/kg

CCCOC(=O)C1C2CCC(O2)C1C(=O)N1CCN(C)CC1 (stereo not shown) [Compound 153]
153 plasma concentration (PO 1.25 mg/kg, 0.25 hr, individual rats, 1.25 mg/kg): 652 ng/mL
153 plasma concentration (PO 1.25 mg/kg, 1 hr, individual rats, 1.25 mg/kg): 121 ng/mL
MRT (female, SD, rat, in vivo, iv, 1.25 mg/kg, MRT (0 t)): 40 min
MRT (0 t) (female, SD, rat, in vivo, po, 1.25 mg/kg): 60.6 min
MRT (female, SD, rat, in vivo, po, 1.25 mg/kg, MRT (0 t)): 59.2 min
MRT (female, SD, rat, in vivo, plasma, 153 1.25 mg/kg PO, individual rats, read-out: MRT (0 t)): 62.4 min
Cmax (female, Sprague-Dawley, rat, in vivo, iv, 1.25 mg/kg): 762 ng/g
concentration at 2 hr (female, Sprague-Dawley, rat, in vivo, po, 1.25 mg/kg): 42 ng/mL
concentration at 0.25 hr (female, Sprague-Dawley, rat, in vivo, po, 1.25 mg/kg, PO 1.25 mg/kg, 0.25 hr, individual rats): 872 ng/mL
concentration at 0.25 hr (female, Sprague-Dawley, rat, in vivo, po, 1.25 mg/kg, PO 1.25 mg/kg, 0.25 hr, mean): 762 ng/mL
concentration at 1 hr (female, Sprague-Dawley, rat, in vivo, po, 1.25 mg/kg, PO 1.25 mg/kg, 1 hr, individual rats): 131 ng/mL
concentration at 1 hr (female, Sprague-Dawley, rat, in vivo, po, 1.25 mg/kg, PO 1.25 mg/kg, 1 hr, mean): 126 ng/mL
concentration at 2 hr (female, Sprague-Dawley, rat, in vivo, po, 1.25 mg/kg, PO 1.25 mg/kg, 2 hr, individual rats, read-out: 153 plasma concentration): 41.2 ng/mL
concentration at 2 hr (female, Sprague-Dawley, rat, in vivo, po, 1.25 mg/kg, PO 1.25 mg/kg, 2 hr, mean, read-out: 153 plasma concentration): 41.6 ng/mL
153 brain concentration [1]: 45 ng/g and 40.3 ng/g
153 liver concentration [1]: 872 ng/g and 652 ng/g
153 plasma concentration [1]: 563 ng/mL and 550 ng/mL
153 brain concentration (iv 1.25 mg/kg, 0.25 hr, mean): 42.7 ng/g
153 liver concentration (iv 1.25 mg/kg, 0.25 hr, mean): 762 ng/g
153 plasma concentration (iv 1.25 mg/kg, 0.25 hr, mean): 557 ng/mL
153 brain concentration [2]: 13.9 ng/g and 14.3 ng/g
153 liver concentration [2]: 131 ng/g and 121 ng/g
153 plasma concentration [2]: 58 ng/mL and 51.4 ng/mL
153 brain concentration (iv 1.25 mg/kg, 1 hr, mean): 14.1 ng/g
153 liver concentration (iv 1.25 mg/kg, 1 hr, mean): 126 ng/g
153 plasma concentration (iv 1.25 mg/kg, 1 hr, mean): 54.7 ng/mL
153 brain concentration [3]: 4.05 ng/g and 4.75 ng/g
153 liver concentration [3]: 42 ng/g and 41.2 ng/g
153 plasma concentration [3]: 14.8 ng/mL and 13 ng/mL
153 brain concentration (iv 1.25 mg/kg, 2 hr, mean): 4.4 ng/g
153 liver concentration (iv 1.25 mg/kg, 2 hr, mean): 41.6 ng/g
153 plasma concentration (iv 1.25 mg/kg, 2 hr, mean): 13.9 ng/mL
153 plasma concentration (iv 1.25 mg/kg, 6 hr, individual rats, 1.25 mg/kg): 1.04 ng/mL and 1.02 ng/mL
153 plasma concentration (iv 1.25 mg/kg, 6 hr, mean): 1.03 ng/mL
153 plasma concentration (iv 1.25 mg/kg, 10 hr, individual rat, abnormal, not included in the calculation): 9.42* ng/mL
T1/2 in brain (iv administration of 153): 35.8 min
T1/2 in liver (iv administration of 153): 37.6 min
Cmax (plasma, 153 1.25 mg/kg IV, individual rats, 1.25 mg/kg): 563 ng/mL
AUC [4]: 163 ng·h/mL
AUC0-∞ [4]: 163 ng·h/mL
AUClast in brain (rat, in vivo, iv): 39.4 ng·h/g
AUClast in liver (rat, in vivo, iv): 500 ng·h/g
oral availability (rat, in vivo, po, 1.25 mg/kg): orally available
